Assay results reported in patent US8673914B2, “Use of phosphodiesterase inhibitors for treating multidrug resistance” (St. John's University, priority 2011, dated 2014).

Assays:
KB-C2 cells (ABCB1) = assay: [^3H]-paclitaxel efflux (Example 1); assay type: cell-based, human; conditions: 1 h
Protocol: The intracellular accumulation of [^3H]-paclitaxel was measured as follows. […] Intracellular paclitaxel accumulation was measured by incubating cells with 0.1 μM [^3H]-paclitaxel for 2 h in the presence or absence of the reversal agents at 37° C. The cells were washed three times with ice-cold PBS, then suspended in fresh medium with or without reversal agents at 37° C. Aliquots of the extracellular medium (40 μl) were collected at various time points (0, 60, 120 min), and finally the cells were collected and lysed in 10 mM lysis buffer (pH 7.4, containing 1% Triton X-100 and 0.2% SDS). Each sample was placed in scintillation fluid and the radioactivity was measured in a Packard TRI-CARB1 1900CA liquid scintillation analyzer from Packard Instrument Company, Inc. (Downers Grove, Ill.).

any cell lines tested = assay: MTT assay, vardenafil or tadalafil alone; assay type: cell-based; conditions: concentrations of up to 20 μM
Protocol: (§1) The MTT assay was used to assess cytotoxicity. The cultured cells were harvested with trypsin and resuspended in a final concentration of 4×10^3 cells/well for KB-3-1; 7.5×10^3 cells/well for KB-C2; and 8×10^3 for all of the other cell lines used in this study. Cells were seeded evenly in 96-well multiplates. […] After 68 h of incubation, 20 μl of the MTT solution (4 mg/ml) was added to each well, and the plate was further incubated for 4 h at 37° C., allowing viable cells to convert the yellow-colored MTT into dark-blue formazan crystals. Subsequently, the medium was discarded, and 100 μl of DMSO was added into each well to dissolve the formazan crystals, generating purple color. The absorbance was determined at 570 nm by an OPSYS Microplate Reader from DYNEX Technologies, Inc. (Chantilly, Va.). […] The degree of the reversal of multidrug resistance (MDR) was calculated by dividing the IC50 of an anticancer drug, e.g., an antineoplastic or chemotherapeutic drug (agent, compound), in a cell type in the absence of a reversal agent by the IC50 of the anticancer drug in the same cell type in the presence of the reversal agent. The IC50 values were calculated from survival curves using the Bliss method.

[1] = tested on: ABCB1 expression in KB-C2 cells; assay: Western blot and immunofluorescence of ABCB1; assay type: cell-based, human; conditions: for protein level of ABCB1 (Western blot): 10 μM, 36 and 72 h; for expression of ABCB1 in the membrane (immunofluorescence): 72 h
Protocol: Following incubation, the cells were harvested and rinsed twice with ice-cold PBS, and total cell lysates were collected with cell lysis buffer (1×PBS, 1% Nonidet P-40, 0.5% sodium deoxycholate, 0.1% SDS, 100 μg/ml phenylmethylsulfonyl fluoride, 10 μg/ml aprotinin, 10 μg/ml leupeptin) for 30 min with gentle rocking, and clarified by centrifugation at 12,000 rpm for 10 min at 4° C. Equal amounts (100 μg of protein) of cell lysates were resolved by sodium dodecyl sulfate polyacrylamide gel electrophoresis (SDS-PAGE) and electrophoretically transferred onto polyvinylidene fluoride (PVDF) membranes. After incubation in a blocking solution containing 5% nonfat milk in TBST buffer (10 mM Tris-HCL (pH 8.0), 150 mM NaCl, and 0.1% Tween 20) for 1 h at room temperature, membranes were immunoblotted overnight with primary monoclonal antibodies C219 (1:200) against ABCB1, or 14C10 (1:200) against GAPDH, at 4° C. Subsequently, the membranes were washed three times for 15 min with TBST buffer and incubated at room temperature for 2 h with HRP-conjugated secondary antibody at 1:1000 dilutions. The membranes underwent three additional washes for 15 min with TBST buffer and the protein-antibody complexes were visualized by the enhanced PHOTOTOPE® HRP Detection Kit (Cell Signaling Technology, Inc.) and exposed to Kodak medical X-ray processor (Eastman Kodak Co., Rochester, N.Y.). […] Propidium iodide was used for nuclear staining.

ABCG2-482-R2 (ABCG2) = assay: MTT cytotoxicity/reversal assay (Example 1); conditions: +10 μM reversal agent
Protocol: The KB-C2 and KB-3-1 were kindly provided by Dr. Akiyama (Kagoshima University, Japan). HEK293-pcDNA3.1 and wild-type HEK/ABCG2 transfected cells were established by selection with G418 after transfecting HEK293 with either (1) empty pcDNA3.1 vector or (2) pcDNA3.1 vector containing full length of ABCG2 coding arginine (R) at amino acid position 482, and were then cultured in a medium with 2 mg/ml of G418 (ABCG2-482-R2 cells). Similarly, the HEK/MRP1 (ABCC1) and HEK/ABCB1 cells were generated by transfecting the HEK293 cells with either the MRP1 expression vector or the ABCB1 expression vector. All of the cell lines were grown in Dulbecco's modified Eagle's medium (DMEM) supplemented with 10% bovine serum, 100 units/ml penicillin, and […] streptomycin in a humidified incubator containing 5% CO2 at 37° C.
as §1

HEK/MRP1 (ABCC1) = assay: MTT cytotoxicity/reversal assay (Example 1); assay type: cell-based; conditions: +10 μM reversal agent
Protocol: The KB-C2 and KB-3-1 were kindly provided by Dr. Akiyama (Kagoshima University, Japan). […] Similarly, the HEK/MRP1 (ABCC1) and HEK/ABCB1 cells were generated by transfecting the HEK293 cells with either the MRP1 expression vector or the ABCB1 expression vector. All of the cell lines were grown in Dulbecco's modified Eagle's medium (DMEM) supplemented with 10% bovine serum, 100 units/ml penicillin, and […] streptomycin in a humidified incubator containing 5% CO2 at 37° C.
as §1

[2] = tested on: MRP7 localization in HEK/MRP7 cells; assay: Immunofluorescence of MRP7; assay type: cell-based; conditions: 5 μM; 72 h
Protocol: HEK/MRP7 cells (1×10^4) were seeded in 24 well plates and cultured overnight. […] Cells were washed with PBS and fixed with 4% paraformaldehyde for 15 min at room temperature and then rinsed with PBS three times. Nonspecific reaction was blocked with 1% BSA for 1 h at room temperature. A polyclonal antibody D19 against MRP7 (1:200) was added and incubated overnight. […] DAPI was used for nuclear staining. Immunofluorescent images were taken with an inverted microscope (model IX70; Olympus, Center Valley, Pa.) with IX-FLA fluorescence and CCD camera.

Compound	accumulated paclitaxel effluxed (KB-C2 cells (ABCB1); absence of vardenafil)	growth inhibition by the PDE5 inhibitor alone (any cell lines tested)	protein level of ABCB1 (Western blot) [1]	expression of ABCB1 in the membrane (immunofluorescence) [1]	fold reversal, SN-38 (ABCG2-482-R2 (ABCG2))	fold reversal, vincristine (HEK/MRP1 (ABCC1))	accumulated paclitaxel retained inside cells (KB-C2 cells (ABCB1); 10 μM)	MRP7 protein localization in plasma membranes [2]
CC(=O)O[C@H]1C(=O)[C@@]2(C)[C@H]([C@H](OC(=O)c3ccccc3)[C@]3(O)C[C@H](OC(=O)[C@H](O)[C@@H](NC(=O)c4ccccc4)c4ccccc4)C(C)=C1C3(C)C)[C@]1(OC(C)=O)CO[C@@H]1C[C@@H]2O [Paclitaxel, paclitaxel]	70%							
CCCc1nc(C)c2c(=O)[nH]c(-c3cc(S(=O)(=O)N4CCN(CC)CC4)ccc3OCC)nn12 [Vardenafil, vardenafil]		neither vardenafil nor tadalafil inhibited the growth of any cell lines tested	not significantly altered	neither vardenafil nor tadalafil altered the expression of ABCB1 in the membrane	(0.97)	(1.07)	75%	no alteration of MRP7 protein localization
CN1CC(=O)N2[C@H](c3ccc4c(c3)OCO4)c3[nH]c4ccccc4c3C[C@@H]2C1=O [Tadalafil, tadalafil]		neither vardenafil nor tadalafil inhibited the growth of any cell lines tested	not significantly altered	neither vardenafil nor tadalafil altered the expression of ABCB1 in the membrane	(1.04)	(1.03)		no alteration of MRP7 protein localization
